Data on 13 compounds can be found in patent publication US20220289715A1, “PESTICIDALLY ACTIVE PYRAZINE-AMIDE COMPOUNDS” (priority 2019, published 2022).

One may read the melting point as the temperature, or range, at which the solid turns liquid. A word on the mortality: it is the percentage killed. A low value points to more survivors.

Some results are limits rather than exact numbers.

Data set [1] deals with Plutella xylostella (Diamondback Moth). Put plainly: Example B9: Plutella xylostella, artificial diet, 96-well. It counts as in vivo. As to conditions: 216 h, application rate of 500 ppm, eggs/L1 larvae, 9 days after infestation. How it is done: Example B9: Plutella xylostella (Diamondback Moth)
96-well microtiter plates containing artificial diet were treated with aqueous test solutions, prepared from 10,000 ppm DMSO stock solutions, by a liquid handling robot. After drying, eggs (˜30 per well) were infested onto a netted lid which was suspended above the diet. The eggs hatch and L1 larvae move down to the diet. The samples were assessed for mortality 9 days after infestation.
The following compounds gave an effect of at least 80% mortality at an application rate of 500 ppm: […]

The test system of data set [2] is Diabrotica balteata (Corn Root Worm). The experiment in a line: Example B1: Diabrotica balteata, spray on maize sprouts. As to conditions: 96 h, application rate of 200 ppm, L2 larvae, 4 days after infestation, read-out: control in at least one of the two categories (mortality or growth inhibition). Format: in vivo. As for the experimental part: Example B1: Diabrotica balteata (Corn Root Worm)
Maize sprouts placed onto an agar layer in 24-well microtiter plates were treated with aqueous test solutions prepared from 10,000 ppm DMSO stock solutions by spraying. After drying, the plates were infested with L2 larvae (6 to 10 per well). The samples were assessed for mortality and growth inhibition in comparison to untreated samples 4 days after infestation.
(§1) The following compounds gave an effect of at least 80% control in at least one of the two categories (mortality or growth inhibition) at an application rate of 200 ppm: […]

The test system of data set [3] is Spodoptera littoralis (Egyptian Cotton Leaf Worm). The experiment in a line: Example B7: Spodoptera littoralis, uptake by lettuce roots from agar. The conditions noted are these: 144 h, test rate of 12.5 ppm, absorbed by lettuce roots, eggs, 6 days after infestation, read-out: control in at least one of the three categories (mortality, anti-feeding, or growth inhibition). It counts as in vivo. The source says:
Example B7: Spodoptera littoralis (Egyptian Cotton Leaf Worm)
Test compounds were applied by pipette from 10,000 ppm DMSO stock solutions into 24-well plates and mixed with agar. Lettuce seeds were placed onto the agar and the multi well plate was closed by another plate which contained also agar. After 7 days the compound was absorbed by the roots and the lettuce grew into the lid plate. The lettuce leaves were then cut off into the lid plate. Spodoptera eggs were pipetted through a plastic stencil onto a humid gel blotting paper and the lid plate was closed with it. The samples were assessed for mortality, anti-feedant effect and growth inhibition in comparison to untreated samples 6 days after infestation.
The following compounds gave an effect of at least 80% control in at least one of the three categories (mortality, anti-feeding, or growth inhibition) at a test rate of 12.5 ppm: […]

Data set [4] relates to Chilo suppressalis (Striped Rice Stemborer). Put plainly: Example B3: Chilo suppressalis, artificial diet. Format: in vivo. The conditions noted are these: 144 h, application rate of 200 ppm, L2 larvae, 6 days after infestation, read-out: control in at least one of the three categories (mortality, anti-feedant effect, or growth inhibition). How it is done:
Example B3: Chilo suppressalis (Striped Rice Stemborer)
24-well microtiter plates with artificial diet were treated with aqueous test solutions prepared from 10,000 ppm DMSO stock solutions by pipetting. After drying, the plates were infested with L2 larvae (6-8 per well). The samples were assessed for mortality, anti-feeding effect, and growth inhibition in comparison to untreated samples 6 days after infestation. Control of Chilo suppressalis by a test sample is given when at least one of the categories mortality, anti-feedant effect, and growth inhibition is higher than the untreated sample.

Data set [5] relates to Spodoptera littoralis (Egyptian Cotton Leaf Worm). Put plainly: Example B6: Spodoptera littoralis, spray on cotton leaf discs. Format: in vivo. As to conditions: foliar, 72 h, application rate of 200 ppm, L1 larvae, 3 days after infestation, read-out: control in at least one of the three categories (mortality, anti-feedant effect, or growth inhibition). How it is done: Example B6: Spodoptera littoralis (Egyptian Cotton Leaf Worm)
Cotton leaf discs were placed onto agar in 24-well microtiter plates and sprayed with aqueous test solutions prepared from 10,000 ppm DMSO stock solutions. After drying the leaf discs were infested with five L1 larvae. The samples were assessed for mortality, anti-feeding effect, and growth inhibition in comparison to untreated samples 3 days after infestation. Control of Spodoptera littoralis by a test sample is given when at least one of the categories mortality, anti-feedant effect, and growth inhibition is higher than the untreated sample.

Data set [6] deals with Myzus persicae (Green Peach Aphid). The experiment in a line: Example B10: Myzus persicae, sucrose solution, 96-well. Format: in vivo. The conditions noted are these: 120 h, application rate of 50 ppm, 5 days after infestation. The text has this: Example B10: Myzus persicae (Green Peach Aphid)
Test compounds prepared from 10,000 ppm DMSO stock solutions were applied by a liquid handling robot into 96-well microtiter plates and mixed with a sucrose solution. Parafilm was stretched over the 96-well microtiter plate and a plastic stencil with 96 holes was placed onto the plate. Aphids were sieved into the wells directly onto the Parafilm. The infested plates were closed with a gel blotting card and a second plastic stencil and then turned upside down. The samples were assessed for mortality 5 days after infestation.

Data set [7] concerns Euschistus heros (Neotropical Brown Stink Bug). Put plainly: Example B2: Euschistus heros, spray on soybean leaves. It counts as in vivo. The conditions noted are these: 120 h, application rate of 200 ppm, N2 nymphs, 5 days after infestation, read-out: control in at least one of the two categories (mortality or growth inhibition). As for the experimental part: Example B2: Euschistus heros (Neotropical Brown Stink Bug)
Soybean leaves on agar in 24-well microtiter plates were sprayed with aqueous test solutions prepared from 10,000 ppm DMSO stock solutions. After drying the leaves were infested with N2 nymphs. The samples were assessed for mortality and growth inhibition in comparison to untreated samples 5 days after infestation.
as §1

The test system of data set [8] is Plutella xylostella (Diamond Back Moth). The experiment in a line: Example B4: Plutella xylostella, artificial diet, 24-well. It counts as in vivo. The conditions noted are these: 192 h, application rate of 200 ppm, eggs, 8 days after infestation, read-out: control in at least one of the two categories (mortality or growth inhibition). As for the experimental part: Example B4: Plutella xylostella (Diamond Back Moth)
24-well microtiter plates with artificial diet were treated with aqueous test solutions prepared from 10,000 ppm DMSO stock solutions by pipetting. After drying, Plutella eggs were pipetted through a plastic stencil onto a gel blotting paper and the plate was closed with it. The samples were assessed for mortality and growth inhibition in comparison to untreated samples 8 days after infestation.
as §1

As for `CCc1cc(C(=O)NC(C)c2nccnc2-n2nccn2)cc(Cl)n1` (stereo not shown) [Compound P31, 2-chloro-6-ethyl-N-[1-[3-(triazol-2-yl)pyrazin-2-yl]ethyl]pyridine-4-carboxamide], the melting point is 126 to 129 °C.
As to `CC(NC(=O)c1cc(Br)cc(C(F)(F)F)c1)c1nccnc1-n1nccn1` (stereo not shown) [Compound P2, 3-bromo-N-[1-[3-(triazol-2-yl)pyrazin-2-yl]ethyl]-5-(trifluoromethyl)benzamide], the mortality at 500 ppm in data set [1] is ≥ 80%. In addition, the percent control (mortality or growth inhibition) at 200 ppm in data set [2], in data set [7] and in data set [8] was ≥ 80% each time. In data set [3], the percent control (mortality, anti-feeding or growth inhibition) at 12.5 ppm was ≥ 80%. Besides, the percent control (mortality, anti-feedant effect or growth inhibition) at 200 ppm in [4] and in data set [5] was ≥ 80% in each case. In [6], the mortality at 50 ppm is ≥ 80%.
`COc1cc(C)cc(C(=O)NC(C)c2nccnc2-n2nccn2)c1` (stereo not shown) [Compound P27, 3-methoxy-5-methyl-N-[1-[3-(triazol-2-yl)pyrazin-2-yl]ethyl]benzamide] returned a melting point of 128 to 129 °C.
`CC(NC(=O)c1cc(C(F)(F)F)nc(C2(C#N)CC2)c1)c1nccnc1-n1nccn1` (stereo not shown) [Compound P14, 2-(1-cyanocyclopropyl)-N-[1-[3-(triazol-2-yl)pyrazin-2-yl]ethyl]-6-(trifluoromethyl)pyridine-4-carboxamide]: the percent control (mortality or growth inhibition) at 200 ppm in data set [2], in data set [7] and in data set [8] was ≥ 80% throughout. Further, the percent control (mortality, anti-feedant effect or growth inhibition) at 200 ppm in data set [4] and in [5] was ≥ 80% each time.
`CC(NC(=O)c1cc(Cl)nc(Cl)c1)c1nccnc1-n1nccn1` (stereo not shown) [Compound P29, 2,6-dichloro-N-[1-[3-(triazol-2-yl)pyrazin-2-yl]ethyl]pyridine-4-carboxamide]: in [1], the mortality at 500 ppm was ≥ 80%. The percent control (mortality or growth inhibition) at 200 ppm in data set [2] and in data set [8] was ≥ 80% in each case. In addition, the percent control (mortality, anti-feeding or growth inhibition) at 12.5 ppm in [3] was ≥ 80%. Besides, the percent control (mortality, anti-feedant effect or growth inhibition) at 200 ppm in [4] and in data set [5] was ≥ 80% throughout. The mortality at 50 ppm in [6] is ≥ 80%.
As for `CC(NC(=O)c1cc(Cl)cc(C(F)(F)F)c1)c1nccnc1-n1nccn1` (stereo not shown) [Compound P4, 3-chloro-N-[1-[3-(triazol-2-yl)pyrazin-2-yl]ethyl]-5-(trifluoromethyl)benzamide], the mortality at 500 ppm in [1] is ≥ 80%. The percent control (mortality or growth inhibition) at 200 ppm in data set [2], in [7] and in [8] was ≥ 80% each time. Also, the percent control (mortality, anti-feeding or growth inhibition) at 12.5 ppm in data set [3] is ≥ 80%. Moreover, the percent control (mortality, anti-feedant effect or growth inhibition) at 200 ppm in [4] and in data set [5] was ≥ 80% each time. The mortality at 50 ppm in data set [6] is ≥ 80%.
As for `COc1cc(OC)cc(C(=O)NC(C)c2nccnc2-n2nccn2)c1` (stereo not shown) [Compound P23, 3,5-dimethoxy-N-[1-[3-(triazol-2-yl)pyrazin-2-yl]ethyl]benzamide], the mortality at 50 ppm in data set [6] is ≥ 80%. Moreover, the percent control (mortality or growth inhibition) at 200 ppm in data set [7] is ≥ 80%.
On to `CC(NC(=O)c1cc(Cl)cc(Cl)c1)c1nccnc1-n1nccn1` (stereo not shown) [Compound P20, 3,5-dichloro-N-[1-[3-(triazol-2-yl)pyrazin-2-yl]ethyl]benzamide], for which the percent control (mortality or growth inhibition) at 200 ppm in data set [2], in data set [7] and in data set [8] was ≥ 80% each time. In addition, the percent control (mortality, anti-feedant effect or growth inhibition) at 200 ppm in [4] and in [5] was ≥ 80% in each case.
Consider `CCCc1cc(C(=O)NC(C)c2nccnc2-n2nccn2)cc(Cl)n1` (stereo not shown) [Compound P34, 2-chloro-6-propyl-N-[1-[3-(triazol-2-yl)pyrazin-2-yl]ethyl]pyridine-4-carboxamide], for which the melting point was in the range of 142 to 145 °C.
With `CC(NC(=O)c1cc(C(F)(F)F)cc(C(F)(F)F)c1)c1nccnc1-n1nccn1` (stereo not shown) [Compound P49, N-[1-[3-(triazol-2-yl)pyrazin-2-yl]ethyl]-3,5-bis(trifluoromethyl)benzamide], the percent control (mortality or growth inhibition) at 200 ppm in [2], in data set [7] and in data set [8] was ≥ 80% in each case. The percent control (mortality, anti-feeding or growth inhibition) at 12.5 ppm in [3] is ≥ 80%. The percent control (mortality, anti-feedant effect or growth inhibition) at 200 ppm in data set [4] and in [5] was ≥ 80% each time.
With `Cc1cnc(C(C)NC(=O)c2cc(C(F)(F)F)cc(C(F)(F)F)c2)c(-n2ccnn2)n1` (stereo not shown) [Compound P43, N-[1-[5-methyl-3-(triazol-1-yl)pyrazin-2-yl]ethyl]-3,5-bis(trifluoromethyl)benzamide], the melting point was in the range of 167 to 171 °C.
As to `CC(NC(=O)c1cc(OC(F)(F)F)cc(C(F)(F)F)c1)c1nccnc1-n1nccn1` (stereo not shown) [Compound P5, N-[1-[3-(triazol-2-yl)pyrazin-2-yl]ethyl]-3-(trifluoromethoxy)-5-(tifluoromethyl)benzamide], the mortality at 500 ppm in data set [1] was ≥ 80%. Further, the percent control (mortality or growth inhibition) at 200 ppm in data set [2] and in [8] was ≥ 80% in each case. The percent control (mortality, anti-feeding or growth inhibition) at 12.5 ppm in data set [3] was ≥ 80%. Also, the percent control (mortality, anti-feedant effect or growth inhibition) at 200 ppm in [4] and in data set [5] was ≥ 80% in each case.
With `CC(NC(=O)c1cc(OC(F)F)cc(C(F)(F)F)c1)c1nccnc1-n1nccn1` (stereo not shown) [Compound P10, 3-(difluoromethoxy)-N-[1-[3-(triazol-2-yl)pyrazin-2-yl]ethyl]-5-(trifluoromethyl)benzamide], in [1], the mortality at 500 ppm is ≥ 80%. Besides, the percent control (mortality or growth inhibition) at 200 ppm in [2] and in data set [8] was ≥ 80% each time. Besides, the percent control (mortality, anti-feeding or growth inhibition) at 12.5 ppm in [3] is ≥ 80%. Also, the percent control (mortality, anti-feedant effect or growth inhibition) at 200 ppm in data set [4] and in data set [5] was ≥ 80% in each case. Also, the mortality at 50 ppm in data set [6] is ≥ 80%.
